# Experimental data as given in PMC11460631, “Inhibition of transient receptor potential vanilloid 3 channels by antimalarial hydroxychloroquine alleviates TRPV3-dependent dermatitis” (The Journal of Biological Chemistry, 2024).
# Key:
# [1] = molecular target: T1, mTRPV1 (Mus musculus, UniProt Q704Y3); test: Whole-cell current recordings, mTRPV1; type: cell-based, murine; conditions: 100 μM HCQ; current activated by 5 μM capsaicin
# T1 construct: YFP or GFP; expressed in transfected cells; host or cells: HEK293T
# T1 sequence (Q704Y3 whole entry): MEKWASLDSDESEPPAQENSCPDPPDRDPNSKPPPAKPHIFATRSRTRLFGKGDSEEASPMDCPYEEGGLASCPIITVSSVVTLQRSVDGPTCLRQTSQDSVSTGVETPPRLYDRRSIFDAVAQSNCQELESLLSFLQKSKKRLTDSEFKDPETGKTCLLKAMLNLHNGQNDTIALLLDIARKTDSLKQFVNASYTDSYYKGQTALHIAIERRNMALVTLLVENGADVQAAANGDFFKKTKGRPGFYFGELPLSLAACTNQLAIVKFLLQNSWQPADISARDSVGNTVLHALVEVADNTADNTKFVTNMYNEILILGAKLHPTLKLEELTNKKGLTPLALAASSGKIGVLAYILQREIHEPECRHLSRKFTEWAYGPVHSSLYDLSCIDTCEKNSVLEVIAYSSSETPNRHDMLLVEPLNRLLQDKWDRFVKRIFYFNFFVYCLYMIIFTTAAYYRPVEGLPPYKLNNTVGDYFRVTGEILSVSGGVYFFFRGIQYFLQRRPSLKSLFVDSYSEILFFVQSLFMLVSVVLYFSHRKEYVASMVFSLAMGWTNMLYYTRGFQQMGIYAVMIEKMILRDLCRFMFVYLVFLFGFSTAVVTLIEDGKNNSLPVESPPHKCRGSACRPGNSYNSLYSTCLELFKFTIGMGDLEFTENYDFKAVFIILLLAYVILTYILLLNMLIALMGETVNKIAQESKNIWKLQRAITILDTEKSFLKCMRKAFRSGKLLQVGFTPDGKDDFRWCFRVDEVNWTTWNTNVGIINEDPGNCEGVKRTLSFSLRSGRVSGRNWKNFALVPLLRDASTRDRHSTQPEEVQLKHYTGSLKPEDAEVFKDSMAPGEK
# Procedure: To elucidate the specificity of HCQ inhibition on TRPV3, we conducted whole-cell current recordings on other known pruritus-related TRP channels, such as hTRPA1, mTRPV1, mTRPV4, and mTRPM8 (Fig. 3, A and F). […] Because of the relatively larger inhibition of HCQ on mTRPM8 current, we tested the concentration dependence of HCQ on mTRPM8 channels.
# HEK293T cells are cultured using Dulbecco's modified Eagle's medium containing 10% fetal bovine serum and 1% penicillin-streptomycin in a cell incubator with 5% CO2 at 37 °C. Plasmids of murine TRPV1, TRPV4, TRPM8, and human TRPV3, TRPA1 are labeled with YFP or GFP as indicators for subsequent electrophysiological recordings. Complementary DNA constructs of ion channels were transiently transfected with Lipofectamine 3000 (Invitrogen). And 12 to 18 h after transient transfection, electrophysiological recordings were performed.
# Patch-clamp recordings were carried out with a HEKA EPC10 amplifier controlled by PatchMaster software (HEKA; https://www.heka.com/products/products_main.html#soft_pm) ([36]). Patch pipettes were prepared from borosilicate glass and fire-polished to the resistance of 3 to 8 MΩ by P-97 puller for whole-cell recordings. For single-channel recordings, patch pipettes were fire-polished to a higher resistance of 6 to 10 MΩ. […]
# [2] = test system: TNF-α, IL-6, IgE, IL-4 in mouse dorsal skin tissues; test: Carvacrol-induced AD-like mouse model: inflammatory factors by ELISA; type: in vivo
# Procedure: We therefore generated a carvacrol-induced AD mouse model to test the effect of HCQ.
# To generate an AD-like mice model, 2% carvacrol (dissolved in 30% ethanol solution) was topically smeared onto the mice dorsum 1 day after hair removal with a depilatory cream (Vetin Depilatory Cream). Mice received a topical administration of an equal volume (200 μl) of 2% carvacrol or in the presence of 2 mg/ml HCQ. […] After the application of carvacrol for 5 days, the external appearance of mice was photographed and then sampled. The external appearance was graded based on three aspects: thickness, erythema/bleeding, and dryness/desquamation, with severity assessed on a score of 0 to 4. The degree of thickness was measured by the thickness of the skin in H&E staining. Skin tissues were either fixed in 4% paraformaldehyde or placed in PBS buffer containing 1% protease inhibitor, facilitating subsequent steps of paraffin embedding or ELISA experiments.
# Animal skin tissues were placed in PBS buffer containing 1% protease inhibitors, then homogenized, and centrifuged for supernatants. Cytokine concentrations of supernatants (IL-4, IL-6, TNF-α, and IgE) were measured using ELISA kits (Tsingke) according to the manufacturer's instructions. The absorption at 450 nm was measured by a microplate reader (Thermo Multiskan MK3).
# [3] = mouse tissues, HCQ 2 mg/ml topical with 2% carvacrol, 5 days
structure (smiles),measurement,setting,value
"CCN(CCO)CCCC(C)Nc1ccnc2cc(Cl)ccc12 (centres unmarked) [HCQ, hydroxychloroquine]",reduction of mTRPV1 current,[1],12.37% ± 5.32%
same,suppression of serum IgE levels,"[2]; HCQ 2 mg/ml topical with 2% carvacrol, 5 days",60.22 ± 11.26%
same,IL-4 levels compared to the model group,"[2]; mouse tissues, HCQ 2 mg/ml or DXM 1 mg/ml topical with 2% carvacrol",no significant difference
same,inhibition of release of carvacrol-induced IL-6,[2]; [3],77.09% ± 5.38%
same,inhibition of release of carvacrol-induced TNF-α,[2]; [3],88.10% ± 4.12%
